For eight compounds, melting point results are on record in patent US6413992B1, “3-(substituted pyridyl)-1,2,4-triazole compounds” (Dow AgroSciences LLC, priority 1998, dated 2002).

In general, melting point refers to the temperature of the solid-liquid transition. On to `Cn1nc(-c2c(Cl)cncc2Cl)nc1-c1ccc(Cl)cc1Cl` [Compound 7], for which the melting point was in the range of 79 to 81 °C.

With `Cn1nc(-c2c(Cl)cncc2Cl)nc1-c1ccncc1` [Compound 113], the melting point was in the range of 130 to 132 °C.

In the case of `Cn1nc(-c2c(Cl)cncc2Cl)nc1C1(C)CC1(Cl)Cl` (centres unmarked) [Compound 133, 3-(3,5 dichloro-4-pyridyl)-5-(2,2-dichloro-1-methylcyclopropyl)-1-methyl[1,2,4]triazole], the melting point lay in the range of 79 to 83 °C.

`Cn1nc(-c2nc(F)c(F)c(F)c2F)nc1-c1ccc(Cl)cc1` [Compound 155] gave a melting point of 154 to 156 °C.

The compound `Cn1nc(-c2nc(Cl)ccc2Cl)nc1-c1ccc(Cl)cc1` [Compound 156] yielded a melting point of 98 to 102 °C.

In turn, `Cn1nc(-c2ncc(Cl)cc2Cl)nc1-c1ccc(Cl)cc1` [Compound 158] came in with a melting point of 105 to 107 °C.

In turn, `Cc1ccc(-c2nc(-c3ncccc3Cl)nn2C)cc1` [Compound 159] displayed a melting point of 113 to 117 °C.

Regarding `Cc1nc(-c2c(Cl)cncc2Cl)nn1-c1ccc(Cl)cc1` [Example 19, 1-(4-Chlorophenyl)-5-methyl-3-(3,5-dichloro-4-pyridyl)-1H-1,2,4-triazole], the melting point fell in the range of 142 to 145 °C.
